Measured values: ChEMBL document CHEMBL1201862, “PubChem BioAssay data set” (2004)
Blank lines part the entries; values can stand above or below the compound they belong to. The source made the active and inactive calls.

Legend:
[1] = Shn3 3'UTR reporter inhibitors, dose response, cell-based, Clone20 osteoblasts, firefly luciferase, cherry-picked (AID 624132); format: functional;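 further: firefly luciferase luminescence from reporter carrying the Shn3 3'UTR in osteoblasts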
[2] = control 3'UTR Renilla luciferase suppression, dose response, counter-screen for Shn3 inhibitor project, cell-based, Clone20-Shn3RL, cherry-picked (AID 624133); format: functional
[3] = reduction of Shn3 3'UTR firefly luciferase signal, dose response, Schnurri-3 inhibitor project, cell-based, Clone20 osteoblasts, cherry-pick, set 2 (AID 720490); format: functional;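 further: actives lower the luminescence signal as inhibitors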
[4] = target: Peroxisome proliferator-activated receptor gamma/Nuclear receptor coactivator 1 (Homo sapiens, UniProt P37231); experiment: TR-FRET dose response biochemical High Throughput Screening assay for agonists of the steroid receptor coactivator 1 (SRC-1) recruitment by the peroxisome proliferator-activated receptor gamma (PPAR gamma): non-selective agonists. [Related pubchem assays (depositor defined):AID1300, AID1808, AID504735, AID631]; format: protein assay
[5] = target: T1, fMet-Leu-Phe receptor (Homo sapiens, UniProt P21462); experiment: FPR ligands, dose response (AID 519); format: functional
T1 sequence (P21462 whole entry): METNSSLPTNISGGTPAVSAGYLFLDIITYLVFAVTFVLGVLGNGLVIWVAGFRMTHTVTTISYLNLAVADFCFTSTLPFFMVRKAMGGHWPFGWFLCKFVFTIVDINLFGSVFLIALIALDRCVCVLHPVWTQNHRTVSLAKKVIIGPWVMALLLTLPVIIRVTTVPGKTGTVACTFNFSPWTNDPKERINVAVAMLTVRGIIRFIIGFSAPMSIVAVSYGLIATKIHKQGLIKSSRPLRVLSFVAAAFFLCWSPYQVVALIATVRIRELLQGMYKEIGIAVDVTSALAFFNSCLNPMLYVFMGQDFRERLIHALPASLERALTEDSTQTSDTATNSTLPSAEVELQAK

[6] = target: Peroxisome proliferator-activated receptor gamma/Nuclear receptor coactivator 2 (Homo sapiens, UniProt P37231); experiment: (§1) TR-FRET dose response biochemical High Throughput Screening assay for agonists of the steroid receptor coactivator 2 (SRC-2) recruitment by the peroxisome proliferator-activated receptor gamma (PPAR gamma): non-selective agonists. [Related pubchem assays: 1297, 1032 ]; format: functional
Sequence of Peroxisome proliferator-activated receptor gamma/Nuclear receptor coactivator 2 (P37231 whole entry): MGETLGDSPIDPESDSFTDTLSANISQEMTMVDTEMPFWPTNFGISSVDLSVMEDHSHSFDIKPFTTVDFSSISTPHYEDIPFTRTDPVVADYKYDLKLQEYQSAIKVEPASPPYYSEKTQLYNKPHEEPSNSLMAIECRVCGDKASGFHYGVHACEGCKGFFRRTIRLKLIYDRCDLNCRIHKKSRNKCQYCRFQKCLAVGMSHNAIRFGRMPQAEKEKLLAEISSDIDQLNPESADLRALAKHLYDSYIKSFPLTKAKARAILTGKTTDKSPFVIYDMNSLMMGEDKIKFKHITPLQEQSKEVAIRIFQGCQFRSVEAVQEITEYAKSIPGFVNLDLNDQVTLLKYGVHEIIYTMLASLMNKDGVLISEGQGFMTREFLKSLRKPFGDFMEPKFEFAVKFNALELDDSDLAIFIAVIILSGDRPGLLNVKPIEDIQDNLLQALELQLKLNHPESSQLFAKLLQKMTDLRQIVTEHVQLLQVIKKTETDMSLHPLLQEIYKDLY
Sequence of Peroxisome proliferator-activated receptor gamma/Nuclear receptor coactivator 2 (Q15596 whole entry, further chain): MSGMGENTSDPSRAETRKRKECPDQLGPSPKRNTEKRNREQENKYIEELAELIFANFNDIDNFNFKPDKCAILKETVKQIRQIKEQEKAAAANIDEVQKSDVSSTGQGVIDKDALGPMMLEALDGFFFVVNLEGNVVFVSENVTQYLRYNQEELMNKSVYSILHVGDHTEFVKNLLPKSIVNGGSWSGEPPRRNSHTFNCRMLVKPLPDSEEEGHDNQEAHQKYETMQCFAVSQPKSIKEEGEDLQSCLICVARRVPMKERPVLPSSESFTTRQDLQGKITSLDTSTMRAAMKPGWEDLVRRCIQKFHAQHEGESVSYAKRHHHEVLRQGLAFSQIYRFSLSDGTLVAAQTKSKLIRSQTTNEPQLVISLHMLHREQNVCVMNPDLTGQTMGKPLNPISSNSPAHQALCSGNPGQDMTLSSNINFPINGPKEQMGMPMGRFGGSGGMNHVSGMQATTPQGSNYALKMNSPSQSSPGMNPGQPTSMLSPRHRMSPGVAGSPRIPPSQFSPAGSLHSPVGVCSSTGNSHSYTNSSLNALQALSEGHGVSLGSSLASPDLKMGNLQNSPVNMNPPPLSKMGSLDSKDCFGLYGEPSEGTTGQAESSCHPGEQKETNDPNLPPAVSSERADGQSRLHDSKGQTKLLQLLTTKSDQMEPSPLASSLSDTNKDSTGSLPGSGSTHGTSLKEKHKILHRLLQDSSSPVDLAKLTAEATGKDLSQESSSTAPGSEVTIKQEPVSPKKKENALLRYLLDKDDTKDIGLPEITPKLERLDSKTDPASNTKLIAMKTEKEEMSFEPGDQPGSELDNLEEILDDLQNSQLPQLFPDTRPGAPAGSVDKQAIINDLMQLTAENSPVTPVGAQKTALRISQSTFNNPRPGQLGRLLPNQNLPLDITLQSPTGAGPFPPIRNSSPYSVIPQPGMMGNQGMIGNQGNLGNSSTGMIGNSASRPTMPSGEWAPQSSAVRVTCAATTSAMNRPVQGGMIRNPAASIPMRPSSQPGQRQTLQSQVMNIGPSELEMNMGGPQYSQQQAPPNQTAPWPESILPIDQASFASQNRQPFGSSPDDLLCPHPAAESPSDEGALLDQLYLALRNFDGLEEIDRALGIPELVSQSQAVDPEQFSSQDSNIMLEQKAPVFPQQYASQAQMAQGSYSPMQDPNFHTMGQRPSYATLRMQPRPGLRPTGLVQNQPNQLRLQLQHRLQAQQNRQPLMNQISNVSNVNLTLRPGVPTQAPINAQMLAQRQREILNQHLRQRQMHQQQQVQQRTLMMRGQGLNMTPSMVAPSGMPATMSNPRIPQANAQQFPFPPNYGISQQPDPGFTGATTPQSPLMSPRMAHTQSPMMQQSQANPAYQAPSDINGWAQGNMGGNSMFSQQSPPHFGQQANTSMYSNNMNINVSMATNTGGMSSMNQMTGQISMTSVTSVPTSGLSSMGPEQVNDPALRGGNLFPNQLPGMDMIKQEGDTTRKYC

[7] = target: Peroxisome proliferator-activated receptor gamma/Nuclear receptor coactivator 3 (Homo sapiens, UniProt P37231); experiment: as §1, with “3 (SRC-3)” for “2 (SRC-2)”, “1301 (Confirmation screen.), 1048 (Primary screen.)]” for “1297, 1032 ]”; format: functional
Sequence of Peroxisome proliferator-activated receptor gamma/Nuclear receptor coactivator 3 (P37231 whole entry): as the sequence (P37231 whole entry) above
Sequence of Peroxisome proliferator-activated receptor gamma/Nuclear receptor coactivator 3 (Q9Y6Q9 whole entry, further chain): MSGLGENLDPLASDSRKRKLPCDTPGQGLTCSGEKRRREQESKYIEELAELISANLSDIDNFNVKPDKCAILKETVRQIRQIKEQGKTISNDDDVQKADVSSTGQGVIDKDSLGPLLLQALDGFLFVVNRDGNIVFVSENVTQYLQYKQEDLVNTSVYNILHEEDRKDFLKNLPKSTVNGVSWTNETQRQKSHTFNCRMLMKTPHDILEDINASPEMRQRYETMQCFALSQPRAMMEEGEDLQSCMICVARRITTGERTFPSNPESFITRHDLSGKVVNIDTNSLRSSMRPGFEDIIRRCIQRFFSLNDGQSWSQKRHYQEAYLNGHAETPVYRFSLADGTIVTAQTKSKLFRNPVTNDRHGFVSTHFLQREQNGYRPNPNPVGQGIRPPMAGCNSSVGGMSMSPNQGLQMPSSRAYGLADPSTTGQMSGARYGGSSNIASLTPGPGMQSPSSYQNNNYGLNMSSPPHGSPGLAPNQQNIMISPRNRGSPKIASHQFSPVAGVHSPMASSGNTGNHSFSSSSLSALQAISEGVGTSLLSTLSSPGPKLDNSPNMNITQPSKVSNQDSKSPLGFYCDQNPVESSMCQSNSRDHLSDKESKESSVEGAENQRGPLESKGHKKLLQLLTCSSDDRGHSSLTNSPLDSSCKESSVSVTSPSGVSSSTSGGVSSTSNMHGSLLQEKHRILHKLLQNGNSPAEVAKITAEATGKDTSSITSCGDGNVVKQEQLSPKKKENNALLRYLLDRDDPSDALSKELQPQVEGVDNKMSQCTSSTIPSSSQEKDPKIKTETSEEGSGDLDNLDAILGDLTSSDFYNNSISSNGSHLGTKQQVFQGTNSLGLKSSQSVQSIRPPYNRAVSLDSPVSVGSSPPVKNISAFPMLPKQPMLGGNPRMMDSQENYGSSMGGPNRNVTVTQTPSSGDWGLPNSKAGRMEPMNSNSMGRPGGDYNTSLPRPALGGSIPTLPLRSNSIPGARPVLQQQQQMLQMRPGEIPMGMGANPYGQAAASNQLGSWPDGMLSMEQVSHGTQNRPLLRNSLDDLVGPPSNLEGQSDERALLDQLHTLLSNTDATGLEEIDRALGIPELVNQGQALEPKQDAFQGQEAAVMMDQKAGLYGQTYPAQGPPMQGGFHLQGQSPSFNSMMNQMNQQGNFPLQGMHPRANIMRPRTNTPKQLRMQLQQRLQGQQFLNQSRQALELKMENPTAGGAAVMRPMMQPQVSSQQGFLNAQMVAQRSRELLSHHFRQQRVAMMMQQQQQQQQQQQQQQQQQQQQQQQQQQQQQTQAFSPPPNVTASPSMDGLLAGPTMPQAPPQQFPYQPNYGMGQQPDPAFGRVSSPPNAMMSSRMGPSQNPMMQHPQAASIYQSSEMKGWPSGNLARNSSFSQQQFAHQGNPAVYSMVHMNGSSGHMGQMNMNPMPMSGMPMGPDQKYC

[8] = target: T2, Protein skinhead-1 (Caenorhabditis elegans, UniProt P34707); format: functional
T2 sequence (P34707 whole entry): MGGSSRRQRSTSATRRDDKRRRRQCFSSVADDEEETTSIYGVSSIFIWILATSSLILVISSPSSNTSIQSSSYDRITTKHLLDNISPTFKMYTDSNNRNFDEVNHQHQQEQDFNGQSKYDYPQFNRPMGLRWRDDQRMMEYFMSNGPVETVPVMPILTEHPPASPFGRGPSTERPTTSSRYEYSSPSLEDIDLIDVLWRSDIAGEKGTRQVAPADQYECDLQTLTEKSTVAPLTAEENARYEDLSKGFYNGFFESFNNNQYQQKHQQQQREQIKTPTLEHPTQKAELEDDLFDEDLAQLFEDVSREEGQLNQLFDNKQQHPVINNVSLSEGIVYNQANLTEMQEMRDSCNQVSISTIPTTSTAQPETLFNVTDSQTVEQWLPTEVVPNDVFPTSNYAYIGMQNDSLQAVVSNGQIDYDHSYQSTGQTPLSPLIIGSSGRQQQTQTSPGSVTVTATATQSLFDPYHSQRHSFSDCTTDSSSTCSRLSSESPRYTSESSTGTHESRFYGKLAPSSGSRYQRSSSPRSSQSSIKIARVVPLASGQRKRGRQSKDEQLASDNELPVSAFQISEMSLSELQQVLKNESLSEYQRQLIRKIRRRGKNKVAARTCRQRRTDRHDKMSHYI

[9] = cells; conditions: HEK293
[10] = C. albicans growth with fluconazole, confirmation, fluorescence, retest (AID 2467); format: functional, cell-based
[11] = NIH-3T3 fibroblast cytotoxicity, dose response, cytotoxicity control, cell-based, fluorescence, Alamar Blue, secondary assay (AID 2327); format: functional;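 further: NIH-3T3 mouse fibroblasts cultured with fluconazole at 8 µg/mL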
[12] = NIH:OVCAR-3 ovarian cancer cell cytotoxicity, dose response, PAX8 inhibitor project, plate reader, dry powder samples (AID 743044); format: functional, cell-based
[13] = cytotoxicity in OVCAR8 ovarian cancer cells, dose response, PAX8 project, cell-based, plate reader, dry powder samples (AID 743197); format: functional; conditions: OVCAR-8
[14] = A2780 ovarian cancer cell cytotoxicity, dose response, cytotoxicity control, plate reader, dry powder samples (AID 743046); format: functional, cell-based
[15] = target: Paired box protein Pax-8 (Homo sapiens, UniProt Q06710); experiment: inhibitors of PAX8-driven TPO luciferase reporter, dose response, RMG-I cells, cherry-pick (AID 687027); format: functional, cell-based;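 further: luciferase reporter driven by Pax8 target thyroperoxidase promoter measured by SteadyGlo luminescence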
Sequence of Paired box protein Pax-8 (Q06710 whole entry): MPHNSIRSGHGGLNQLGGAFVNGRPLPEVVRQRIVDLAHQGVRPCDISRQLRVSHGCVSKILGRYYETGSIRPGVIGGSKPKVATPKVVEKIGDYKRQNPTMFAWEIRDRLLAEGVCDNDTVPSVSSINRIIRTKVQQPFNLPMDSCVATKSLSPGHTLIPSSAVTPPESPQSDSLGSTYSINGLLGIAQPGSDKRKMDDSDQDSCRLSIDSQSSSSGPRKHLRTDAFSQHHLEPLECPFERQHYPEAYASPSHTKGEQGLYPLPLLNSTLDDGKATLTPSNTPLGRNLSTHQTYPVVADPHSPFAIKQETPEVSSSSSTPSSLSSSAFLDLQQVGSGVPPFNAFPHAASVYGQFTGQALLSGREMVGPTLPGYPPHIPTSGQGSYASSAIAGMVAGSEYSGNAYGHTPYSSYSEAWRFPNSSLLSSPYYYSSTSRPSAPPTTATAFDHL

[16] = A375 melanoma cell viability loss, dose response, counter-screen for MITF inhibitor project, CellTiter-Glo luminescence, dry powder, set 4 (AID 624364); format: functional, cell-based; conditions: A-375;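 further: A375 melanoma cells are MITF independent so this is a counter screen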
[17] = A375 melanoma cell cytotoxicity, dose response, counter-screen for MITF inhibitor project, CellTiter-Glo luminescence, dry powder, set 2 (AID 624489); format: functional, cell-based; conditions: A-375;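 further: actives are compounds lowering A375 viability meaning general cytotoxicity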
[18] = system: P388/ADR; experiment: cells; format: functional; conditions: Mus musculus
[19] = target: FAD-linked sulfhydryl oxidase ALR (Homo sapiens, UniProt P55789); experiment: inhibitors of human ALR sulfhydryl oxidase, dose response, biochemical, H2O2 detection, luminescence, cherry-pick (AID 493248)
Sequence of FAD-linked sulfhydryl oxidase ALR (P55789 whole entry): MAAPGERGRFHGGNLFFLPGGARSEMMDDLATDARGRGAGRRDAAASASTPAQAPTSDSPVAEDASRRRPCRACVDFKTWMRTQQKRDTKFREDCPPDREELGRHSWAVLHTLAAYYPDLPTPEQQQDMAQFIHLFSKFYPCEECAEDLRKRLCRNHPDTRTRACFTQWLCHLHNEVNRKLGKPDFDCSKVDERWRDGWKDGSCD

[20] = target: Endoplasmic reticulum aminopeptidase 1 (Homo sapiens, UniProt Q9NZ08); experiment: ERAP1 aminopeptidase inhibitors, dose response, biochemical, cherry-pick, set 2, plate reader (AID 743314)
[21] = system: SN12K1; experiment: cells; format: functional; conditions: Homo sapiens
[22] = target: T3, Cytochrome P450 1A2 (Homo sapiens, UniProt P05177);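 further: PubChem cytochrome P450 panel assay, CYP1A2 panel member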
T3 sequence (P05177 whole entry): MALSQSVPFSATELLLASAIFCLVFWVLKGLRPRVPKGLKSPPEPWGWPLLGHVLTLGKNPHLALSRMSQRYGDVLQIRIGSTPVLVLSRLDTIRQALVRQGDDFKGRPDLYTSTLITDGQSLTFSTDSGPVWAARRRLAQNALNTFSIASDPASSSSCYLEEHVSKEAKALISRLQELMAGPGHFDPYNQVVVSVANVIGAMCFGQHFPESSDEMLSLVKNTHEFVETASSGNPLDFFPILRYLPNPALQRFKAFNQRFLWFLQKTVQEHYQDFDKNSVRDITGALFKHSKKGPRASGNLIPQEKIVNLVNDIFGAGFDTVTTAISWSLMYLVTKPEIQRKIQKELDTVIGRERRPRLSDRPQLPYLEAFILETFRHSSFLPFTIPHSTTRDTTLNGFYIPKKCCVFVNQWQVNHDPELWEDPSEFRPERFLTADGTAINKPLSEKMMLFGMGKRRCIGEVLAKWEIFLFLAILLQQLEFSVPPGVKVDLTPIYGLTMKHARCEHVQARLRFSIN

[23] = system: P388; experiment: cells; format: functional; conditions: Mus musculus

SMILES: COc1ccccc1NC(=O)Cn1cc(C(=O)C2CC2)c2ccccc21
AC50 [1]: 4.76 µM (active) | AC50 [2]: 29 µM (active) | AC50 [3]: 6.08 µM (active)

EC50 [4]: > 79.4 µM (inactive) | Ki [5]: > 66.7 µM (inactive) | EC50 [6]: 37.9 µM (not active) | EC50 [7]: > 79.4 µM (not active)
SMILES: COc1ccc(C(=O)C2=C(O)C(=O)N(c3nc(C)c(C)s3)C2c2ccco2)cc1 (stereo not given)

SMILES: CCc1cccc(C)c1N=C(S)NCc1ccc2c(c1)cc(C)n2C
IC50 [8]: > 100 µM (inactive) | AC50 [9]: > 52 µM (inactive) | EC50 [10]: > 38 µM (not active) | EC50 [11]: 51.5 µM (active)

SMILES: C[C@@H]1CCCCO[C@H](CN(C)C(=O)Cc2ccccc2)[C@@H](C)CN([C@@H](C)CO)C(=O)c2cc(NC(=O)Nc3ccc(C(F)(F)F)cc3)ccc2O1
AC50 [12]: 54.5 µM (active) | AC50 [13]: 58.8 µM (active) | AC50 [14]: 54.7 µM (active) | AC50 [15]: 2.85 µM (active)

SMILES: NC1=C(c2ccc(OC(F)(F)F)cc2)C(=O)c2ccccc2C1=O
AC50 [16]: > 70 µM (inactive) | AC50 [17]: > 70 µM (inactive)

SMILES: CC(=O)N(C)C1=C(N2CCCCC2)C(=O)c2ccccc2C1=O
AC50 [16]: 27.1 µM (active) | AC50 [17]: 14.8 µM (active)

SMILES: COc1cc2ccc(=O)oc2cc1O [SCOPOLETIN]
GI50 [18]: 12.5 µM (inactive) | AC50 [19]: 4.4 µM (active) | AC50 [20]: 5.79 µM (active) | GI50 [21]: 19.4 µM (inactive) | AC50 [22]: 5.01 µM (inconclusive) | GI50 [23]: 5.55 µM (inactive)
